One data set relates to HeLa cells. Briefly: Potentiation Factor (PF50), MMS growth inhibition, SRB assay. It is filed as cell-based. The settings on record: with MMS, ratio of IC50 control / IC50 with PARP inhibitor; for mean PF50 at 30 nM: compound at 30 nM; for mean PF50 at 200 nM: compound at 200 nM. On the procedure:
The Potentiation Factor (PF50) for compounds is calculated as a ratio of the IC50 of control cell growth divided by the IC50 of cell growth+PARP inhibitor. Growth inhibition curves for both control and compound treated cells are in the presence of the alkylating agent methyl methanesulfonate (MMS). […] The concentrations of MMS were over a range from 0 to 10 μg/ml.
Cell growth was assessed using the sulforhodamine B (SRB) assay (Skehan, P., et al., (1990) New calorimetric cytotoxicity assay for anticancer-drug screening. J. Natl. Cancer Inst. 82, 1107-1112). 2,000 HeLa cells were seeded into each well of a flat-bottomed 96-well microtiter plate in a volume of 100 μl and incubated for 6 hours at 37° C. […] Cells were allowed to grow for a further 1 hour before the addition of MMS at a range of concentrations (typically 0, 1, 2, 3, 5, 7 and 10 μg/ml) to either untreated cells or PARP inhibitor treated cells. Cells treated with PARP inhibitor alone were used to assess the growth inhibition by the PARP inhibitor.
Cells were left for a further 16 hours before replacing the media and allowing the cells to grow for a further 72 hours at 37° C. The media was then removed and the cells fixed with 100 μl of ice cold 10% (w/v) trichloroacetic acid. The plates were incubated at 4° C. for 20 minutes and then washed four times with water. Each well of cells was then stained with 100 μl of 0.4% (w/v) SRB in 1% acetic acid for 20 minutes before washing four times with 1% acetic acid. Plates were then dried for 2 hours at room temperature. The dye from the stained cells was solubilized by the addition of 100 μl of 10 mM Tris Base into each well. Plates were gently shaken and left at room temperature for 30 minutes before measuring the optical density at 564 nm on a Microquant microtiter plate reader.

The next data set can be described thus: Solubility assay. It is filed as physicochemical. The settings on record: thermodynamic from solid; water; 20 hours at room temperature. On the procedure: A typical assay that may be used to assess the solubility of the compounds of the present invention is as follows. The solubility of the compound is assessed in water and phosphate-buffered saline (pbs) at pH 7.4. The samples are all allowed to equilibrate in the solvent (with shaking) for 20 hours at room temperature. After that period, the samples will be visually examined to determine the presence/absence of un-dissolved solid. The samples will be centrifuged or filtered as necessary to remove insoluble material, and the solution analysed to determine solubility of the DS, diluting both aqueous and DMSO samples to a similar concentration with DMSO. The area of the peak obtained by HPLC (using the diode array detector) from the sample will be compared to the area of the peak from the DMSO solution (diluted to the same concentration as the sample) and quantified taking into account the weight of sample taken for initial dissolution. The assumption is made that the sample will be completely soluble in DMSO at the levels used for testing.
Comparing the ratio of the peak areas, and knowing the concentration of the original samples, the solubility may be calculated.
About 1 mg of the sample is weighed accurately into a 4-ml glass vial and exactly 1.0 ml of water, aqueous buffer or DMSO, is added to it by pipette. Each vial is ultrasonicated for up to 2 minutes to assist solublisation of the solid. The samples are retained at room temperature for 20 hours, shaking on an orbital shaker. The vials are examined after this period to determine the presence/absence of un-dissolved solid. The samples should be centrifuged, or filtered through a 0.45 μm filter, to remove insoluble material if necessary, and the filtrate analysed to determine concentration of the compound in solution, after diluting all samples as appropriate with DMSO. 20 μl is injected onto the HPLC using the method shown below, injecting all samples in duplicate. The maximum solubility that can be determined using this method is nominally 1.0 mg/ml, the weight taken divided by the volume of solvent used. […]

Data set [1] has as its system BRAC2 complemented (VC8+BAC) cells. The experiment in a line: VC8 assay, growth inhibition (SRB), complemented cells. The settings on record: BRCA2 complemented VC8+BAC cells. It is filed as cell-based, hamster. Here is the method:
(§1) In order to assess the growth inhibitory action of compounds on BRCA2 deficient (VC8−hamster line) and BRAC2 complemented (VC8+BAC) cells the following assay was used to determine GI50 values.
500 VC8 cells or 200 VC8+BAC cells were seeded into each well of a flat-bottomed 96-well microtiter plate in a volume of 90 μl and incubated for 4-6 hours at 37° C. […]
(§2) Cells were left for a further 48 hours before replacing the media with fresh media (no compound) and allowing the cells to grow for a total of 120 hours at 37° C. The medium was then removed and the cells fixed with 50 μl of ice cold 10% (w/v) tricholoracetic acid. The plates were incubated at 4° C. for 30 minutes and then washed three times with water. Each well of cells was then stained with 50 μl of 0.4% (w/v) sulforhodamine B (SRB) in 1% acetic acid for 15 minutes before washing three times with 1% acetic acid. Plates were then dried for 2 hours at room temperature. The dye from the stained cells was solubilised by the addition of 100 μl of 10 mM Tris Base into each well. Plates were then shaken and the optical density at 564 nm was measured on a Microquant microtiter plate reader.
The GI50 is calculated as the μM concentration of compound required to inhibit 50% of cell growth.

In data set [2] the test system is BRCA2 deficient (VC8) cells. Briefly: VC8 assay, growth inhibition (SRB). It is filed as cell-based, hamster. The settings on record: V-C8. On the procedure:
as §1
500 VC8 cells or 200 VC8+BAC cells were seeded into each well of a flat-bottomed 96-well microtiter plate in a volume of 90 μl and incubated for 4-6 hours at 37° C. All compounds were diluted in media (Dulbecco's Modified Eagle's Medium (DMEM), 10% Fetal Bovine Serum, Penicillin/Sretptomycin/Glutamine) and added to the cells at final concentrations of between 0 and 300 nM.
as §2, with “reader. […]” for “reader.”

In general, solubility refers to the concentration that dissolves in the medium under given conditions. The low end stands for a poorly soluble substance, the high end for a readily soluble substance. A word on the GI50: it is the concentration at which growth is held to half of that of the control. The low end stands for more potent growth inhibition, the high end for less potent growth inhibition.

The structures appear in SMILES notation. ≈ marks a conversion by molar mass, not a printed value.

For `C[C@@H]1NC(=O)N(c2cc(Cc3n[nH]c(=O)c4c3CCCC4)ccc2F)C1=O` (single isomer, unassigned) [Compound 13a], the “mean PF50 at 30 nM” value with HeLa cells is 25.
Still for that read-out and setting: then `C[C@H]1NC(=O)N(c2cc(Cc3n[nH]c(=O)c4c3CCCC4)ccc2F)C1=O` (single isomer, unassigned) [Compound 13b], with 9.
Consider `CC1NC(=O)N(c2cccc(Cc3n[nH]c(=O)c4c3CCCC4)c2)C1=O` (stereo not shown) [Compound 6, 5-Methyl-3-[3-(4-oxo-3,4,5,6,7,8-hexahydro-phthalazin-1-ylmethyl)-phenyl]-imidazolidine-2,4-dione], for which the “mean PF50 at 200 nM” value in the data set on HeLa cells was found to be 20. In the data set “Solubility assay”, this molecule came in with a solubility at 20 h of 500 µg/mL (≈ 1420 µM).
On to `CC1NC(=O)N(c2cc(Cc3n[nH]c(=O)c4c3CCCC4)ccc2F)C1=O` (stereo not shown) [Compound 13, 3-[2-Fluoro-5-(4-oxo-3,4,5,6,7,8-hexahydro-phthalazin-1-ylmethyl)-phenyl]-5-methylimidazolidine-2,4-dione], for which, in the data set on HeLa cells, the “mean PF50 at 200 nM” value is listed as 57. The solubility at 20 h in the data set “Solubility assay” was found to be 900 µg/mL (≈ 2430 µM). Besides, the results for the GI50 in data set [1] and in data set [2] were 29 µM and 0.0105 µM, respectively.
With `CC1(C)NC(=O)N(c2cccc(Cc3n[nH]c(=O)c4c3CCCC4)c2)C1=O` [Compound 15, 5,5-dimethyl-3-[3-[(4-oxo-5,6,7,8-tetrahydro-3H-phthalazin-1-yl)methyl]phenyl]imidazolidine-2,4-dione], the “mean PF50 at 200 nM” value in the data set on HeLa cells amounted to 2. The molecule further yielded a solubility at 20 h in the data set “Solubility assay” of 105 µg/mL (≈ 287 µM).

The values are drawn from US7981890B2, “Phthalazinone derivatives” (AstraZeneca AB, priority 2007, dated 2011).
